In PubChem BioAssay (NCI) one finds TGI and GI50 data, which are given here for 26 compounds.

Holding throughout (assay): NCI anticancer screen, dose series, 48 h
Assay [1] relates to HCT-15 colon.
Assay [2] has as its system SW-620 colon.
The subject of assay [3] is HL-60(TB) leukemia.
Assay [4] deals with MOLT-4 leukemia.
In assay [5] the test system is U251 CNS.
Assay [6] relates to CCRF-CEM leukemia.
Assay [7] has as its system 786-0 renal.
Assay [8] has as its system HCT-116 colon.
For assay [9], the system named is A549 NSCLC.

“And” between values parts separate entries of the source, which are not always exact repeats. Identical values can stand only once.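 How tested: cells in 96-well plates exposed to compound for 48 hours at five concentrations. GI50 = concentration required for 50% inhibition of growth. Definition used: TGI = concentration required for complete inhibition of growth.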 Where only a bound is given, the exact number is not on record here.

Regarding `O=[N+]([O-])c1ccc(C[P+](c2ccccc2)(c2ccccc2)c2ccccc2)cc1`, the TGI in [1], in assay [2], in assay [3], in assay [4], in [5] and in assay [6] was above 100 µM each time. Besides, the TGI in [7], in [8] and in assay [9] was above 100 µM each time.
Turning to `CC1=C(c2ccccc2)C(c2ccccc2)=C(c2ccccc2)C2(c3ccccc3)C(=O)C(C)CN12` (centres undefined), the TGI in assay [1], in assay [2], in assay [4], in assay [5], in assay [7] and in assay [8] was above 100 µM in each case. Also, the TGI in assay [9] is above 100 µM.
On to `CCc1ccccc1NC(=O)C1=C(C)NC(C)=C(C(=O)Nc2ccccc2CC)C1c1ccccc1Cl`, for which the TGI in assay [2], in [3], in assay [4], in assay [5], in assay [6] and in assay [7] was above 100 µM each time. The TGI in assay [8] and in [9] was above 100 µM each time.
With `C[C@H](NC(=O)[C@@H](C)N)[C@H](Oc1ccc2c(cnn2-c2ccc(F)cc2)c1)c1ccc2c(c1)OCCO2`, the GI50 was 1.98 µM in [1]; 1.71 µM in [2]; 2.28 µM in [3]; 1.44 µM in assay [4]; 2.4 µM in assay [5]; 1.49 µM in [6]. The GI50 in [7] is 3.77 µM; in [8], 1.87 µM; in [9], 1.36 µM. Further, the TGI in [1] came out at 4.44 µM; in [2], 3.36 µM; in assay [3], 4.94 µM; in [4], 4.25 µM; in [5], 5.56 µM; in assay [6], 4.6 µM. Further, the TGI in assay [7] came to 14.3 µM; in assay [8], 3.73 µM; in [9], 12.6 µM.
With `CCCCCCCCCCCc1nnc(N)o1`, the TGI in [1], in [2], in assay [3], in [4], in [5] and in assay [7] was above 100 µM throughout. The TGI in [8] and in assay [9] was above 100 µM in each case.
For the compound `O=C(O)C1=C(O)C(C(=O)O)C23CCCCCCCCCCC12C(C(=O)O)C(O)=C3C(=O)O` (centres undefined), the TGI in [1], in [2], in assay [3], in [4], in assay [5] and in [6] was above 100 µM in each case. The TGI in assay [7] and in assay [9] was above 100 µM each time.
Regarding `COC1=C(N)C(=O)c2nc(C)ccc2C1=O`, the TGI is 3.49 µM in assay [1]; 3.36 µM in assay [2]; above 26.9 µM in [3]; above 52.9 µM in assay [4]; 5.69 µM in assay [5]; above 87.7 µM in assay [6]. The values for the TGI in assay [7], in assay [8] and in [9] were 3.94 µM, 3.99 µM and 4.57 µM, respectively.
`Cc1nnn[n-]1.N.N.N.N.N.[Cl-].[Co+3]`: the GI50 in assay [2], in [3], in assay [4], in assay [5], in assay [6] and in assay [7] was above 100 µM each time. Besides, the GI50 in assay [8] and in [9] was above 100 µM each time. Moreover, the TGI in assay [2], in assay [3], in assay [4], in [5], in assay [6] and in assay [7] was above 100 µM throughout. Moreover, the TGI in assay [8] and in assay [9] was above 100 µM throughout.
`COC(=O)CC1C[C@H](C#N)N(C(=O)c2ccccc2)C[C@@H]1CC[N+](=O)[O-]` (some centres undefined): the TGI in assay [1], in assay [2], in [3], in assay [4], in assay [5] and in [6] was above 100 µM throughout. Moreover, the TGI in assay [7], in assay [8] and in [9] was above 100 µM in each case.
In the case of `O/N=C1/C(=C/c2ccc3c(c2)OCO3)CCCC1C(NO)c1ccc2c(c1)OCO2` (centres undefined), the TGI in [1] is 83.8 µM; in assay [2], above 100 µM; in assay [3], 36.4 µM; in assay [4], 42.5 µM; in [5], 45.1 µM; in assay [6] it was 53 µM. For the same compound, the TGI in [7] is 96.3 µM; in assay [8] it was 31.9 µM; in assay [9], 95.4 µM.
With `CS(=O)(=O)OC1CCC2(C#N)CCC1C2=O` (centres undefined), the TGI in [1], in assay [3], in [4], in [5], in assay [6] and in assay [7] was above 100 µM in each case. For the same compound, the TGI in [8] and in [9] was above 100 µM throughout.
In the case of `COc1ccc(C(=S)N2CCN(c3cccc(C)c3)CC2)cc1OC`, the GI50 is 3.77 µM in assay [1]; 3.04 µM in assay [2]; 1.83 µM in assay [3]; 5.8 µM in assay [5]; above 100 µM in [6]; 7.54 µM in [7]. Moreover, the GI50 in assay [8] was 3.47 µM; in assay [9] it was 6.37 µM. The TGI in [1], in [2], in assay [3], in assay [5], in assay [6] and in assay [7] was above 100 µM in each case. The TGI in assay [8] and in assay [9] was above 100 µM throughout.
On to `O=C1N(C2CCCCC2)CC12CCCCC2`, for which the TGI in assay [1], in assay [2], in assay [3], in assay [4], in [5] and in assay [6] was above 100 µM in each case. Further, the TGI in assay [7], in [8] and in assay [9] was above 100 µM each time.
Turning to `CN(O)C(=O)SCC(NC(=O)CCC(N)C(=O)O)C(=O)NCC(=O)O` (centres undefined), the GI50 in assay [1] is above 2000 µM; in assay [3], > 2 µM and 1200 µM; in assay [4] it was above 2 µM; in assay [5], above 2000 µM; in assay [6], 198 µM and 520 µM; in [7] it was above 2000 µM. The GI50 in assay [8] and in assay [9] was above 2000 µM in each case. The TGI in assay [2] is above 2000 µM; in [3], above 2000 µM; in assay [4], above 2000 µM; in assay [6] it was > 2 µM and 649 µM and 1240 µM; in [7], above 2000 µM; in assay [8], above 2000 µM. Further, the TGI in assay [9] is above 2000 µM.
As for `CC1=C(C(=O)Nc2cc(=O)n(C)c(=O)n2C)C(c2ccco2)C(C(=O)Nc2cc(=O)n(C)c(=O)n2C)=C(C)N1`, the TGI in [2], in assay [3], in assay [4], in assay [5], in [6] and in assay [7] was above 100 µM throughout. The compound further came in with a TGI in [9] above 100 µM.
On to `NC(=O)C(=O)N/N=C1\C(=O)N(c2ccc(Cl)cc2Cl)C(=O)C1C(=O)Nc1ccc(Cl)cc1Cl` (centres undefined), for which the TGI in [1], in assay [2], in [3], in assay [4], in assay [5] and in assay [6] was above 100 µM each time. In addition, the TGI in assay [7], in [8] and in assay [9] was above 100 µM in each case.
With `O=C(NCCCCNc1cccccc1=O)OCc1ccccc1`, the TGI in [1], in [2], in assay [3], in assay [4], in assay [5] and in assay [6] was above 100 µM in each case. The TGI in [7], in [8] and in [9] was above 100 µM in each case.
Regarding `COC(=O)NC(=O)c1cn(C2OC(CO)C(O)C2O)c(=O)[nH]c1=O` (centres undefined), the TGI in [1], in assay [2], in assay [3], in assay [4], in assay [5] and in assay [7] was above 100 µM throughout. Moreover, the TGI in assay [8] and in assay [9] was above 100 µM in each case.
As to `N.N.N.N.[Co+3].[N-]=[N+]=[N-].[N-]=[N+]=[N-].[N-]=[N+]=[N-]`, the GI50 is above 100 µM in assay [1]; above 100 µM in assay [2]; 61.5 µM in assay [3]; 36 µM in assay [4]; above 100 µM in assay [5]; 61.1 µM in assay [6]. Further, the GI50 is above 100 µM in assay [7], 85.5 µM in assay [8] and above 100 µM in assay [9]. Moreover, the TGI in assay [1], in [2], in assay [3], in [4], in assay [5] and in assay [6] was above 100 µM in each case. Besides, the TGI in [7], in assay [8] and in assay [9] was above 100 µM in each case.
Turning to `O=C1CC(O)CC(=O)C1=C(O)CCCCCCCCCCc1ccccc1` (centres undefined), the TGI is above 100 µM in [2]; 59.2 µM in [3]; above 100 µM in assay [4]; above 100 µM in [5]; above 100 µM in [6]; above 100 µM in assay [7]. For the same compound, the TGI in assay [8] and in assay [9] was above 100 µM each time.
For `COc1ccc(C23C(=O)c4ccccc4N2O[C@H]2C(=O)N(c4ccccc4)C(=O)[C@H]23)cc1` (some centres undefined), the TGI in assay [1], in assay [2], in assay [3], in assay [4], in assay [5] and in assay [6] was above 100 µM each time. Besides, the TGI in assay [7], in [8] and in [9] was above 100 µM in each case.
Regarding `N.N.N.N.N.NC(=O)c1nn[n-]n1.[Cl-].[Co+3]`, the GI50 in assay [1], in assay [2], in [3], in [4], in assay [5] and in assay [6] was above 100 µM throughout. Moreover, the GI50 in [7], in assay [8] and in assay [9] was above 100 µM in each case. For the same compound, the TGI in [1], in [2], in [3], in [4], in [5] and in assay [6] was above 100 µM each time. The TGI in [7], in assay [8] and in assay [9] was above 100 µM each time.
`Cc1cccc(/C=C/c2c(C(=O)/C=C/c3ccccc3)c(C)nc3ccccc23)c1`: the GI50 in assay [1] was 1.26 µM; in assay [2], 1.34 µM; in assay [3] it was 1.83 µM; in assay [4] it was 0.508 µM; in assay [5], 1.47 µM; in [6] it was 1.33 µM. Moreover, the GI50 in assay [7] was 1.62 µM; in [9], 1.91 µM. Moreover, the TGI is 3.57 µM in assay [1]; 2.98 µM in [2]; 4.34 µM in [3]; 3.72 µM in [4]; 2.85 µM in assay [5]; above 100 µM in assay [6]. Also, the figures for the TGI in [7] and in assay [9] were 3.11 µM and 4.76 µM, respectively.
Regarding `CC1(C)O[C@H]2[C@H](O)C[C@](O)(CO)C[C@H]2O1`, the TGI in assay [1], in assay [2], in assay [4], in [5], in assay [7] and in assay [8] was above 100 µM each time. The TGI in assay [9] is above 100 µM.
As to `Cc1cc(CC(=O)NCCO)n(CCO)c(=O)c1`, the TGI in [2], in assay [3], in assay [4], in [5], in assay [6] and in [7] was above 100 µM throughout. Also, the TGI in assay [8] and in assay [9] was above 100 µM throughout.
For `COc1ccc(/C=N/N=C(\N)NO)cc1O`, the TGI in assay [1] was above 100 µM; in [2], above 100 µM; in assay [4] it was above 100 µM; in assay [5], above 100 µM; in assay [6] it was above 100 µM; in assay [7], 55.7 µM. Moreover, the TGI in assay [8] and in assay [9] was above 100 µM in each case.
